We go through eleven compounds from US9266876B2 (Actelion Pharmaceuticals Ltd., priority 2012, dated 2016).

Assay [1] has as its target human CXCR3A (Homo sapiens (Human), UniProt P49682). Nature of the assay: FLIPR assay. In kind it is cell-based. To be noted: CHO-K1 cells expressing the human CXCR3A coupled to Galpha(16); CXCL10 agonist 20 nM; Fluo-4-AM fluorescence; mean values if determined several times. The gist of the method: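 CHO-K1 cells expressing CXCR3A coupled to Gα16 were loaded with Fluo-4-AM for 1 h in Hepes-buffered HBSS, pH 7.4, with 5 mM probenecid. Compound dilutions were added on the FLIPR, followed by CXCL10 (added as a 20 nM solution). Baseline-subtracted peak fluorescence was fitted to a single-site curve for IC50.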

Assay [2] has as its target CXCR3 (Homo sapiens (Human), UniProt P49682). Nature of the assay: Receptor internalization assay. Particulars: human whole blood; final CXCL10 concentration 9 nM; 30 min 37° C.; CXCR3 cell surface expression on CD3 positive cells, flow cytometer; read-out: Internalization IC50. In kind it is cell-based. The protocol: B): Receptor Internalization Assay:
Stock solutions of test compounds are made up at a concentration of 10 mM in DMSO, and serially diluted in PBS containing 0.5% BSA to concentrations required for inhibition dose response curves. Diluted compounds are then mixed with an equal volume of CXCL10 (Peprotech) diluted in PBS. Anticoagulated venous human whole blood is added to the mixture, which is then incubated in a CO2 incubator at 37° C. to allow for ligand mediated receptor internalization (final CXCL10 concentration is 9 nM). After 30′, the blood is mixed with fluorescently labeled CXCR3 and CD3 specific antibodies (Becton Dickinson) and incubated on ice for 10 minutes. Samples are then mixed with BD FACS Lysing Solution (Becton Dickinson) in order to eliminate red blood cells. After washing the cells with PBS containing 0.5% BSA, the samples are then analyzed in a flow cytometer (FACS Canto II, Becton Dickinson). For data analysis using FACSDiva software (Becton Dickinson), the mean fluorescence corresponding to CXCR3 cell surface expression was determined on CD3 positive cells. The program GraphPad Prism is used to fit the data to a single site dose response curve and to calculate IC50 values.
Background: A flow cytometer gives signals particle by particle.

Broadly, the IC50 is the midpoint of a concentration-inhibition curve.

Sequence of human CXCR3A (P49682 whole entry): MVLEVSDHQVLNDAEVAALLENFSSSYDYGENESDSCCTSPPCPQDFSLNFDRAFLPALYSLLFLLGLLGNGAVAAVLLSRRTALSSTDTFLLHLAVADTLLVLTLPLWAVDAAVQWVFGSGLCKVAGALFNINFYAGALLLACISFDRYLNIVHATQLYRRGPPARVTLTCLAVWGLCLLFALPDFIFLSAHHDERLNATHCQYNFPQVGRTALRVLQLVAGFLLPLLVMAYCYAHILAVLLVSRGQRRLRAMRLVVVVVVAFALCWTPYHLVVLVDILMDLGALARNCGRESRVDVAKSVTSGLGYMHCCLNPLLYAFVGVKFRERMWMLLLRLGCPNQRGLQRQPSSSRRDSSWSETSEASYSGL
Sequence of CXCR3 (P49682 whole entry): as above

`C[C@@H]1CN(c2scnc2-c2nc3cc(S(C)(=O)=O)ccc3[nH]2)CCN1C(=O)Cn1ccc2cccnc21` [Example 25, 1-{(R)-4-[4-(5-Methanesulfonyl-1H-benzoimidazol-2-yl)-thiazol-5-yl]-2-methyl-piperazin-1-yl}-2-pyrrolo[2,3-b]pyridin-1-yl-ethanone]: the values for the IC50 in assay [1] and in assay [2] were 3 nM and 3140 nM, respectively.

As to `C[C@@H]1CN(c2sc(C3CC3)nc2-c2nc3ccccc3[nH]2)CCN1C(=O)Cn1cnc2cccnc21` [Example 73, 1-{(R)-4-[4-(1H-Benzoimidazol-2-yl)-2-cyclopropyl-thiazol-5-yl]-2-methyl-piperazin-1-yl}-2-imidazo[4,5-b]pyridin-3-yl-ethanone], the IC50 in assay [1] was 6 nM; in assay [2], 800 nM.

Regarding `Cc1cccc2ccn(CC(=O)N3CCN(c4scnc4-c4nc5ccccc5[nH]4)CC3)c12` [Example 57, 1-{4-[4-(1H-Benzoimidazol-2-yl)-thiazol-5-yl]-piperazin-1-yl}-2-(7-methyl-indol-1-yl)-ethanone], the values for the IC50 in assay [1] and in assay [2] were 2 nM and 4130 nM, respectively.

In the case of `C[C@@H]1CN(c2scnc2-c2nc3ccccc3[nH]2)CCN1C(=O)Cc1ccccc1-n1nccn1` [Example 186, 1-{(R)-4-[4-(1H-Benzoimidazol-2-yl)-thiazol-5-yl]-2-methyl-piperazin-1-yl}-2-(2-[1,2,3]triazol-2-yl-phenyl)-ethanone], the IC50 in assay [1] was 4 nM; in assay [2] it was 1610 nM.

In the case of `N#Cc1cccc2ccn(CC(=O)N3CCN(c4scnc4-c4nc5ccccc5[nH]4)CC3)c12` [Example 61, 1-(2-{4-[4-(1H-Benzoimidazol-2-yl)-thiazol-5-yl]-piperazin-1-yl}-2-oxo-ethyl)-1H-indole-7-carbonitrile], the values for the IC50 in assay [1] and in assay [2] were 2 nM and 458 nM, respectively.

As for `C[C@@H]1CN(c2scnc2-c2nc3ccccc3[nH]2)CCN1C(=O)CN1C(=O)C(F)(F)c2ccccc21` [Example 187, 1-(2-{(R)-4-[4-(1H-Benzoimidazol-2-yl)-thiazol-5-yl]-2-methyl-piperazin-1-yl}-2-oxo-ethyl)-3,3-difluoro-1,3-dihydro-indol-2-one], the half-maximal inhibitory concentration (IC50) in assay [1] stood at 0.3 nM; in assay [2], 1110 nM.

Turning to `C[C@@H]1CN(c2scnc2-c2nc3ccccc3[nH]2)CCN1C(=O)Cc1n[nH]c2ccccc12` [Example 132, 1-{(R)-4-[4-(1H-Benzoimidazol-2-yl)-thiazol-5-yl]-2-methyl-piperazin-1-yl}-2-(1H-indazol-3-yl)-ethanone], the IC50 in assay [1] worked out at 3 nM; in assay [2], 6380 nM.

With `Cc1nc(C)n(CC(=O)N2CCN(c3sc(C(F)(F)F)nc3-c3nc4ccc(CCN5CCCC5)cc4[nH]3)C[C@H]2C)n1` [Example 244, 2-(3,5-Dimethyl-[1,2,4]triazol-1-yl)-1-((R)-2-methyl-4-{4-[6-(2-pyrrolidin-1-yl-ethyl)-1H-benzoimidazol-2-yl]-2-trifluoromethyl-thiazol-5-yl}-piperazin-1-yl)-ethanone], the IC50 in assay [1] worked out at 23 nM; in assay [2] it was 531 nM.

As for `Cc1nnc(CC(=O)N2CCN(c3sc(C(F)(F)F)nc3-c3nc4ccccc4[nH]3)C[C@H]2C)o1` [Example 195, 1-{(R)-4-[4-(1H-Benzoimidazol-2-yl)-2-trifluoromethyl-thiazol-5-yl]-2-methyl-piperazin-1-yl}-2-(5-methyl-[1,3,4]oxadiazol-2-yl)-ethanone], the IC50 in assay [1] was 8 nM; in assay [2], 2710 nM.

On to `Cc1ccc2[nH]c(-c3ncsc3N3CCN(C(=O)Cn4cnc5cccnc54)[C@H](C)C3)nc2c1` [Example 85, 2-Imidazo[4,5-b]pyridin-3-yl-1-{(R)-2-methyl-4-[4-(5-methyl-1H-benzoimidazol-2-yl)-thiazol-5-yl]-piperazin-1-yl}-ethanone], for which the 50% inhibitory concentration (IC50) turned out to be 1 nM in assay [1] and 499 nM in assay [2].

As for `O=C(Cn1ccc2c(Cl)cccc21)N1CCN(c2scnc2-c2nc3ccccc3[nH]2)CC1` [Example 60, 1-{4-[4-(1H-Benzoimidazol-2-yl)-thiazol-5-yl]-piperazin-1-yl}-2-(4-chloro-indol-1-yl)-ethanone], the IC50 worked out at 8 nM in assay [1] and 1400 nM in assay [2].
